From ChEMBL document CHEMBL5634100, “Novel spiro[pyrrolidine-2,3'-quinoline]-2'-one derivatives containing piperazine fragment as potential chitin synthase inhibitors and antifungal agents: Design, synthesis and biological evaluation” (Eur J Med Chem, 2023)
Converted amounts (≈) assume the structure as drawn.

What was measured:
[1] = test system: Candida tropicalis; assay: Inhibition of Candida tropicalis ATCC 750 chitin synthase using UDP-GlcNAc as substrate at 300 ug/ml by TMB based microplate analyzer relative to control; conditions: dose 300.0 µg/ml
[2] = Inhibition of Candida tropicalis ATCC 750 chitin synthase using UDP-GlcNAc as substrate by TMB based microplate analyzer
[3] = test system: Candida albicans; assay: Antimicrobial activity against Candida albicans ATCC 76615 incubated for 24 hrs by two fold serial dilution method; assay type: functional
[4] = test system: Aspergillus flavus; assay: Antimicrobial activity against Aspergillus flavus ATCC 16870 incubated for 24 hrs by two fold serial dilution method; assay type: functional
[5] = test system: Aspergillus fumigatus; assay: Antimicrobial activity against Aspergillus fumigatus GIMCC 3.19 incubated for 24 hrs by two fold serial dilution method; assay type: functional
[6] = test system: Cryptococcus neoformans; assay: Antimicrobial activity against Cryptococcus neoformans ATCC 32719 incubated for 24 hrs by two fold serial dilution method; assay type: functional
[7] = test system: Candida albicans; assay: Antimicrobial activity against Candida albicans ATCC 76615 assessed as inhibition of cell wall synthesis in presence of sorbitol; assay type: functional
[8] = test system: Aspergillus flavus; assay: Antimicrobial activity against Aspergillus flavus ATCC 16870 assessed as inhibition of cell wall synthesis in presence of sorbitol; assay type: functional
[9] = test system: Aspergillus fumigatus; assay: Antimicrobial activity against Aspergillus fumigatus GIMCC 3.19 assessed as inhibition of cell wall synthesis in presence of sorbitol; assay type: functional
[10] = test system: Cryptococcus neoformans; assay: Antimicrobial activity against Cryptococcus neoformans ATCC 32719 assessed as inhibition of cell wall synthesis in presence of sorbitol; assay type: functional
[11] = test system: Candida albicans; assay: Antimicrobial activity against fluconazole-resistant Candida albicans ATCC 76615R incubated for 24 hrs by two fold serial dilution method; assay type: functional
[12] = test system: Aspergillus flavus; assay: Antimicrobial activity against Fluconazole-resistant Aspergillus flavus ATCC 16870R incubated for 24 hrs by two fold serial dilution method; assay type: functional
[13] = test system: Aspergillus fumigatus; assay: Antimicrobial activity against Fluconazole-resistant Aspergillus fumigatus GIMCC 3.19R incubated for 24 hrs by two fold serial dilution method; assay type: functional
[14] = test system: Cryptococcus neoformans; assay: Antimicrobial activity against Fluconazole-resistant Cryptococcus neoformans ATCC 32719R incubated for 24 hrs by two fold serial dilution method; assay type: functional
[15] = test system: Candida albicans; assay: Antimicrobial activity against micafungin-resistant Candida albicans ATCC 76615R incubated for 24 hrs by two fold serial dilution method; assay type: functional
[16] = test system: Candida albicans; assay: Antimicrobial activity against Candida albicans ATCC 76615 incubated for 24 hrs in presence of fluconazole by checkerboard method; assay type: functional
[17] = test system: Aspergillus flavus; assay: Antimicrobial activity against Aspergillus flavus ATCC 16870 incubated for 24 hrs in presence of fluconazole by checkerboard method; assay type: functional
[18] = test system: Aspergillus fumigatus; assay: Antimicrobial activity against Aspergillus fumigatus GIMCC 3.19 incubated for 24 hrs in presence of fluconazole by checkerboard method; assay type: functional
[19] = test system: Cryptococcus neoformans; assay: Antimicrobial activity against Cryptococcus neoformans ATCC 32719 incubated for 24 hrs in presence of fluconazole by checkerboard method; assay type: functional
[20] = test system: Candida albicans; assay: Antimicrobial activity against Candida albicans ATCC 76615 incubated for 24 hrs in presence of polyoxin B by checkerboard method; assay type: functional
[21] = test system: Aspergillus flavus; assay: Antimicrobial activity against Aspergillus flavus ATCC 16870 incubated for 24 hrs in presence of polyoxin B by checkerboard method; assay type: functional
[22] = test system: Aspergillus fumigatus; assay: Antimicrobial activity against Aspergillus fumigatus GIMCC 3.19 incubated for 24 hrs in presence of polyoxin B by checkerboard method; assay type: functional
[23] = test system: Cryptococcus neoformans; assay: Antimicrobial activity against Cryptococcus neoformans ATCC 32719 incubated for 24 hrs in presence of polyoxin B by checkerboard method; assay type: functional
[24] = test system: Candida albicans; assay: Synergistic antimicrobial activity against Candida albicans ATCC 76615 assessed as fractional inhibitory concentration index incubated for 24 hrs in presence of fluconazole by checkerboard method; assay type: functional
[25] = test system: Aspergillus flavus; assay: Synergistic antimicrobial activity against Aspergillus flavus ATCC 16870 assessed as fractional inhibitory concentration index incubated for 24 hrs in presence of fluconazole by checkerboard method; assay type: functional
[26] = test system: Aspergillus fumigatus; assay: Additive antimicrobial activity against Aspergillus fumigatus GIMCC 3.19 assessed as fractional inhibitory concentration index incubated for 24 hrs in presence of fluconazole by checkerboard method; assay type: functional
[27] = test system: Cryptococcus neoformans; assay: Synergistic antimicrobial activity against Cryptococcus neoformans ATCC 32719 assessed as fractional inhibitory concentration index incubated for 24 hrs in presence of fluconazole by checkerboard method; assay type: functional
[28] = test system: Candida albicans; assay: Synergistic antimicrobial activity against Candida albicans ATCC 76615 assessed as fractional inhibitory concentration index incubated for 24 hrs in presence of polyoxin B by checkerboard method; assay type: functional
[29] = test system: Aspergillus flavus; assay: Additive antimicrobial activity against Aspergillus flavus ATCC 16870 assessed as fractional inhibitory concentration index incubated for 24 hrs in presence of polyoxin B by checkerboard method; assay type: functional
[30] = test system: Aspergillus fumigatus; assay: Additive antimicrobial activity against Aspergillus fumigatus GIMCC 3.19 assessed as fractional inhibitory concentration index incubated for 24 hrs in presence of polyoxin B by checkerboard method; assay type: functional
[31] = test system: Cryptococcus neoformans; assay: Synergistic antimicrobial activity against Cryptococcus neoformans ATCC 32719 assessed as fractional inhibitory concentration index incubated for 24 hrs in presence of polyoxin B by checkerboard method; assay type: functional
[32] = test system: Aspergillus flavus; assay: Additive antimicrobial activity against Aspergillus flavus ATCC 16870 assessed as fractional inhibitory concentration index incubated for 24 hrs in presence of fluconazole by checkerboard method; assay type: functional
[33] = test system: Aspergillus fumigatus; assay: Synergistic antimicrobial activity against Aspergillus fumigatus GIMCC 3.19 assessed as fractional inhibitory concentration index incubated for 24 hrs in presence of fluconazole by checkerboard method; assay type: functional
[34] = test system: Cryptococcus neoformans; assay: Additive antimicrobial activity against Cryptococcus neoformans ATCC 32719 assessed as fractional inhibitory concentration index incubated for 24 hrs in presence of fluconazole by checkerboard method; assay type: functional
[35] = test system: Candida albicans; assay: Additive antimicrobial activity against Candida albicans ATCC 76615 assessed as fractional inhibitory concentration index incubated for 24 hrs in presence of polyoxin B by checkerboard method; assay type: functional
[36] = test system: Aspergillus fumigatus; assay: Synergistic antimicrobial activity against Aspergillus fumigatus GIMCC 3.19 assessed as fractional inhibitory concentration index incubated for 24 hrs in presence of polyoxin B by checkerboard method; assay type: functional
[37] = test system: Cryptococcus neoformans; assay: Additive antimicrobial activity against Cryptococcus neoformans ATCC 32719 assessed as fractional inhibitory concentration index incubated for 24 hrs in presence of polyoxin B by checkerboard method; assay type: functional

Compound | inhibition [1] [%] | IC50 [2] [µM] | MIC [3] [µg/mL] | MIC [4] [µg/mL] | MIC [5] [µg/mL] | MIC [6] [µg/mL] | MIC [7] [µg/mL] | MIC [8] [µg/mL] | MIC [9] [µg/mL] | MIC [10] [µg/mL] | MIC [11] [µg/mL] | MIC [12] [µg/mL] | MIC [13] [µg/mL] | MIC [14] [µg/mL] | MIC [15] [µg/mL] | MIC [16] [µg/mL] | MIC [17] [µg/mL] | MIC [18] [µg/mL] | MIC [19] [µg/mL] | MIC [20] [µg/mL] | further results
O=C(c1cc([N+](=O)[O-])ccc1Cl)N1CCN(CC(=O)N2CCCC23Cc2ccccc2NC3=O)CC1 (configuration not stated) | 82.9 | 100 | 1 (≈ 1.95 µM) | 1 (≈ 1.95 µM) | 4 (≈ 7.81 µM) | 4 (≈ 7.81 µM) | 32 | 64 | 128 | 256 | 32 (≈ 62.5 µM) | 32 (≈ 62.5 µM) | 32 (≈ 62.5 µM) | 128 (≈ 250 µM) | 32 (≈ 62.5 µM) | 2 | 4 | 1 | 4 | 2 | MIC [21]: 1 µg/mL; MIC [22]: 2 µg/mL; MIC [23]: 4 µg/mL; fractional inhibitory concentration index (FICI) [24]: 1; fractional inhibitory concentration index (FICI) [25]: 0.75; fractional inhibitory concentration index (FICI) [26]: 1.25; fractional inhibitory concentration index (FICI) [27]: 0.625; fractional inhibitory concentration index (FICI) [28]: 0.75; fractional inhibitory concentration index (FICI) [29]: 1.125; fractional inhibitory concentration index (FICI) [30]: 1.25; fractional inhibitory concentration index (FICI) [31]: 0.5
O=C(c1cccc(F)c1)N1CCN(CC(=O)N2CCCC23Cc2ccccc2NC3=O)CC1 (configuration not stated) | 76.8 | 140 | 1 (≈ 2.22 µM) | 4 (≈ 8.88 µM) | 1 (≈ 2.22 µM) | 8 (≈ 17.8 µM) | 64 | 64 | 128 | 64 | 32 (≈ 71 µM) | 32 (≈ 71 µM) | 32 (≈ 71 µM) | 32 (≈ 71 µM) | 128 (≈ 284 µM) | 1 | 2 | 1 | 2 | 0.5 | MIC [21]: 2 µg/mL; MIC [22]: 4 µg/mL; MIC [23]: 2 µg/mL; fractional inhibitory concentration index (FICI) [24]: 0.75; fractional inhibitory concentration index (FICI) [32]: 1.25; fractional inhibitory concentration index (FICI) [33]: 0.5; fractional inhibitory concentration index (FICI) [34]: 1.25; fractional inhibitory concentration index (FICI) [35]: 1.063; fractional inhibitory concentration index (FICI) [29]: 1.25; fractional inhibitory concentration index (FICI) [36]: 0.625; fractional inhibitory concentration index (FICI) [37]: 1.125
